{
  "source": "paper PMC2774621",
  "about": "“Homogenous Fluorescent Assays for Characterizing Small-Molecule Activators of AMP-Activated Protein Kinase (AMPK)” (Current Chemical Genomics, 2008)",
  "key": {"[1]": {"test_system": "rat-liver or recombinant AMPK (α1β1γ1)", "design": "method as in PMID 16753576", "details": "read-out: EC50 of AMPK activation; cited from earlier work"}, "AMPK α2β1γ1 [2]": {"molecular_target": "T1, AMPK α2β1γ1 (Homo sapiens, UniProt P54619+P54646)", "T1 construct": "made in house; host or cells: Sf9 insect cells (baculovirus)", "T1 sequence (P54646 whole entry)": "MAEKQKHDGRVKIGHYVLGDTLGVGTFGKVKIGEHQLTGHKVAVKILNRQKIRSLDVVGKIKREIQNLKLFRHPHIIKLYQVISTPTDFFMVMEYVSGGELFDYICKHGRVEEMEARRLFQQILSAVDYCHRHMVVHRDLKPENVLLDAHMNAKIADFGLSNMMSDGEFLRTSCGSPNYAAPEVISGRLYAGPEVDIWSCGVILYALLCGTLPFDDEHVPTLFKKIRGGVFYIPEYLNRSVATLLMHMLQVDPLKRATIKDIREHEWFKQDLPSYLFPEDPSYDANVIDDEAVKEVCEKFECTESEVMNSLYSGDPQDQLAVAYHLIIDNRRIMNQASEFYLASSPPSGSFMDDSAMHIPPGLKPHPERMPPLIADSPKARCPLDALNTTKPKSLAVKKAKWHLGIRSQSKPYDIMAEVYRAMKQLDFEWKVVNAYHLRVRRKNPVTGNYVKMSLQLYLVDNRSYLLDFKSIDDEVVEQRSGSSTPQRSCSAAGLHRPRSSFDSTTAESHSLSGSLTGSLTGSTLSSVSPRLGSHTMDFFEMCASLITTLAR", "T1 sequence (Q9Y478 whole entry partner)": "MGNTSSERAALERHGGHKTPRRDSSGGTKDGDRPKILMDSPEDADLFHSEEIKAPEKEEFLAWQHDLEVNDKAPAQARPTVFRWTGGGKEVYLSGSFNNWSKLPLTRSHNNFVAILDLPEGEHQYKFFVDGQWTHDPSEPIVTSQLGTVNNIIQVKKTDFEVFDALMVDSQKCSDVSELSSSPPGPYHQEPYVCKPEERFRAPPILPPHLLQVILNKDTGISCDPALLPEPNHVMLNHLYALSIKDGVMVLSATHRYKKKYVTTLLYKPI", "T1 sequence (P54619 whole entry)": "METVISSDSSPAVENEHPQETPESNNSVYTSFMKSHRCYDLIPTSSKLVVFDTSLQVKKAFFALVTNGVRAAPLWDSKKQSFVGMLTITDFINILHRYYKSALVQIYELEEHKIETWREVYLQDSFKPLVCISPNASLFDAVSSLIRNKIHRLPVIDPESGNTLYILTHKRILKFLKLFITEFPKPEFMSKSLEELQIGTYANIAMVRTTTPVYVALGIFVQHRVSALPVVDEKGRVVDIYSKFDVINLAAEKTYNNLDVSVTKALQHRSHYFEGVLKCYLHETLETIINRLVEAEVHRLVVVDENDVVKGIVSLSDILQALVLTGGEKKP", "assay": "TR-FRET activity assay (LanthaScreen, fluorescein-CREBtide)", "assay_type": "biochemical", "details": "TR-FRET, ATP 150 µM, substrate 400 nM; read-out: Activator EC50", "method": "(§1) Activators and inhibitors were prepared as described for the radiometric assay. Assays were performed as follows: 2.5 µL of the inhibitor or activator working stock was added to a 5 µL solution of kinase and substrate, followed by 2.5 µL of ATP to start the assay. Assays were performed in quadruplicate. […] After one hour, a 10 µL solution of EDTA and terbium labeled phospho-specific antibody in 20 mM Tris, pH 7.5 and 0.01% NP-40 was added to a final well volume of 20 µL, a final antibody concentration of 1 nM, and a final EDTA concentration of 10 mM. After a 30 minute incubation at room temperature the assay plate was read on a BMG Pherastar plate reader using the LanthaScreen™ filter module. The TR-FRET ratio was calculated as the intensity of the acceptor signal divided by the intensity of the donor signal.\n(§2) Data analysis and curve-fitting was performed using GraphPad Prism software (GraphPad Software, Inc, San Diego CA)."}, "AMPK α1β1γ1": {"molecular_target": "T2, AMPK α1β1γ1 (Homo sapiens, UniProt P54619+Q13131)", "T2 construct": "made in house; host or cells: Sf9 insect cells (baculovirus)", "T2 sequence (Q13131 whole entry)": "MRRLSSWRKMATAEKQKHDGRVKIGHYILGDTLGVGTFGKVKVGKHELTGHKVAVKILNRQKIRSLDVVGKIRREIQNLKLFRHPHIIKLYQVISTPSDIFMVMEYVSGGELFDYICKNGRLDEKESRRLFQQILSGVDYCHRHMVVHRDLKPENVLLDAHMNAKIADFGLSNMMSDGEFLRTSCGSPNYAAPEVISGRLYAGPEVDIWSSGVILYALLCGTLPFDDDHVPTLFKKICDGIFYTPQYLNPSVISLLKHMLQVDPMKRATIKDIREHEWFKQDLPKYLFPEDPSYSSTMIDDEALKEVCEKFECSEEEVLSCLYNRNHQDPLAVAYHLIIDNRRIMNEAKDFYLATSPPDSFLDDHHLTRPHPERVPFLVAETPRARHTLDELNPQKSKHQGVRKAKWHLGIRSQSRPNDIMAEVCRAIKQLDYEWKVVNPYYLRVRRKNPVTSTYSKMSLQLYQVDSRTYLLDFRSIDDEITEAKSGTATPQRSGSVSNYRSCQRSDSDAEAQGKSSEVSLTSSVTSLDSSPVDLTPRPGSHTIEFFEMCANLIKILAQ", "T2 sequence (Q9Y478 whole entry partner)": "as the sequence (Q9Y478 whole entry partner) above", "T2 sequence (P54619 whole entry)": "as the sequence (P54619 whole entry) above", "assay": "TR-FRET activity assay (LanthaScreen, fluorescein-CREBtide)", "assay_type": "biochemical", "details": "ATP 50 µM, substrate 400 nM, read-out: Activator EC50", "method": "as §1, §2"}, "AMPK α1β1γ1 and α2β1γ1 [3]": {"molecular_target": "T3, AMPK α1β1γ1 and α2β1γ1 (Homo sapiens, UniProt P54619+P54646+Q9Y478)", "T3 construct": "made in house; host or cells: Sf9 insect cells (baculovirus)", "T3 sequence (P54646 whole entry, canonical isoform)": "as the sequence (P54646 whole entry) above", "T3 sequence (Q9Y478 whole entry, canonical isoform)": "as the sequence (Q9Y478 whole entry partner) above", "T3 sequence (P54619 whole entry, canonical isoform)": "as the sequence (P54619 whole entry) above", "assay": "Summary statements across all assay formats (radiometric, TR-FRET, FRET, CHEF)", "assay_type": "biochemical", "details": "α2β1γ1 isoform", "method": "(§3) Kinase reactions were performed at room temperature in 50 mM HEPES pH 7.5, 0.01% BRIJ-35, 10 mM MgCl2, and 1 mM EGTA in a 30 µL assay volume in 96-well plates. For the inhibition experiments, a 2-fold dilution series of inhibitor stock solutions was first prepared in 100% DMSO at 100-fold concentration of inhibitor to be used in the assay. Prior to the assay, 4 µL of each inhibitor concentration was further diluted to 100 µL in assay buffer to prepare a working stock of inhibitor in 4% DMSO at 4-fold the final assay concentration. For the activation experiments, activators were prepared in 100% H2O at 4-fold the concentration to be tested in the assay. Assays were performed as follows: 7.5 µL of the inhibitor or activator working stock was added to a 17.5 µL solution of assay buffer, substrate and [^32P]-ATP (0.5 µCi/well), followed by 5 µL of enzyme to start the assay. All assays were performed in triplicate. The final concentration of SAMS peptide substrate in the reaction was 200 µM. AMPK α1β1γ1 was used at 334 ng/mL (1.8 nM) in the inhibition experiments and 83.3 ng/mL (0.44 nM) in the activation experiments, at an ATP concentration of 35 µM. AMPK α2β1γ1 was used at 1670 ng/mL (8.9 nM) in the inhibition experiments and 267 ng/mL (1.4 nM) in the activation experiments, at an ATP concentration of 65 µM. After 10 minutes, 20 µL of the reaction was spotted onto a p81 filter. The filters were washed three times in 0.5% phosphoric acid, and twice in distilled water before being counted in Beckman Coulter Ready Safe liquid scintillation cocktail using a Beckman Coulter LS6500 Multipurpose Scintillation Counter. Scintillation Counter output (cpm) was used to calculate specific activity (nmole / (min•mg)).\n(§4) Kinase reactions were performed in a 10 µL assay volume at room temperature in 384-well low volume plates (Corning model 3676) using the same assay buffer as the radiometric assay. Activators and inhibitors were prepared as described for the radiometric assay. Assays were performed as follows: 2.5 µL of the inhibitor or activator working stock was added to a 5 µL solution of kinase and substrate, followed by 2.5 µL of ATP to start the assay. Assays were performed in quadruplicate. The final concentration of fluorescein-labeled CREBtide peptide substrate (derived from residues 123-136 of CREB protein) in the reaction was 400 nM. AMPK α1β1γ1 was used at 600 ng/mL (3.1 nM) in the inhibition experiments and 200 ng/mL (1.1 nM) in the activation experiments, at an ATP concentration of 50 µM. AMPK α2β1γ1 was used at 5 µg/mL (26.5 nM) in the inhibition experiments and 600 ng/mL (3.2 nM) in the activation experiments, at an ATP concentration of 150 µM. After one hour, a 10 µL solution of EDTA and terbium labeled phospho-specific antibody in 20 mM Tris, pH 7.5 and 0.01% NP-40 was added to a final well volume of 20 µL, a final antibody concentration of 1 nM, and a final EDTA concentration of 10 mM. After a 30 minute incubation at room temperature the assay plate was read on a BMG Pherastar plate reader using the LanthaScreen™ filter module. The TR-FRET ratio was calculated as the intensity of the acceptor signal divided by the intensity of the donor signal.\n(§5) Kinase reactions were performed in a 10 µL assay volume at room temperature in 384-well low volume plates (Corning model 3676) using the same assay buffer as the radiometric assay. Inhibitors and activators were prepared as described for the radiometric assays. Assays were performed as follows: 2.5 µL of the inhibitor or activator working stock was added to a 5 µL solution of kinase and substrate, followed by 2.5 µL of ATP to start the assay. All assays were performed in quadruplicate. The final concentration of Z’-LYTE™ S/T23 peptide substrate in the reaction was 2 µM. AMPK α1β1γ1 was used at 79 ng/mL (0.42 nM) in the inhibition experiments and 41 ng/mL (0.22 nM) in the activation experiments, at an ATP concentration of 50 µM. […]"}, "AMPK α1β1γ1 and α2β1γ1 [4]": {"molecular_target": "AMPK α1β1γ1 and α2β1γ1 (Homo sapiens, UniProt P54619+P54646)", "sequence (P54619 whole entry)": "as above", "sequence (P54646 whole entry)": "as the sequence (P54646 whole entry) above", "sequence (Q9Y478 whole entry partner)": "as the sequence (Q9Y478 whole entry partner) above", "assay": "Summary statements across all assay formats (radiometric, TR-FRET, FRET, CHEF)", "assay_type": "biochemical", "details": "read-out: half-maximal stimulatory concentration; all assay formats", "method": "as §3, §4, §5"}, "AMPK α1β1γ1 and α2β1γ1 [5]": {"molecular_target": "T4, AMPK α1β1γ1 and α2β1γ1 (Homo sapiens, UniProt P54619+Q13131+Q9Y478)", "T4 construct": "made in house; host or cells: Sf9 insect cells (baculovirus)", "T4 sequence (Q13131 whole entry, canonical isoform)": "as the sequence (Q13131 whole entry) above", "T4 sequence (Q9Y478 whole entry, canonical isoform)": "as the sequence (Q9Y478 whole entry partner) above", "T4 sequence (P54619 whole entry, canonical isoform)": "as the sequence (P54619 whole entry) above", "assay": "Summary statements across all assay formats (radiometric, TR-FRET, FRET, CHEF)", "assay_type": "biochemical", "details": "α1β1γ1 isoform, any formats", "method": "as §3, §4, §5"}, "AMPK α2β1γ1 [6]": {"molecular_target": "T1, AMPK α2β1γ1", "assay": "Radiometric kinase assay (SAMS peptide, 32P-ATP)", "assay_type": "biochemical", "method": "as §3, §2"}, "[7]": {"test_system": "partially purified rat AMPK", "design": "method as in PMID 8185610", "details": "cited from earlier work"}, "[8]": {"test_system": "partially purified human AMPK", "design": "method as in PMID 8185610", "details": "cited from earlier work"}},
  "data": [
    {"smiles": "N#Cc1c(O)c2c(-c3ccc(-c4ccccc4O)cc3)csc2[nH]c1=O", "note": "[A-769662]", "values": [
      {"measurement": "EC50", "setting": "[1]", "value": "~0.8", "unit": "µM"}
    ]},
    {"smiles": "Nc1ncnc2c1ncn2[C@@H]1O[C@H](COP(N)(=O)O)[C@@H](O)[C@H]1O", "note": "[APR, adenosine 5′-monophosphoramidate]", "values": [
      {"measurement": "EC50", "setting": "AMPK α2β1γ1 [2]", "value": 43, "unit": "µM"},
      {"measurement": "EC50", "setting": "AMPK α1β1γ1", "value": 722, "unit": "µM"},
      {"measurement": "maximal extent of activation", "setting": "AMPK α1β1γ1 and α2β1γ1 [3]", "value": "2 to 3", "unit": "fold"},
      {"measurement": "EC50", "setting": "AMPK α1β1γ1 and α2β1γ1 [4]", "value": "> 50", "unit": "µM"},
      {"measurement": "activation before inhibiting kinase activity to below basal levels", "setting": "AMPK α1β1γ1 and α2β1γ1 [5]", "value": "negligible activation"},
      {"measurement": "EC50", "setting": "AMPK α2β1γ1 [6]", "value": 194, "unit": "µM"},
      {"measurement": "Max. fold-activation", "setting": "AMPK α2β1γ1 [6]; radiometric, ATP 65 µM, SAMS 200 µM", "value": 1.9, "unit": "fold"},
      {"measurement": "fold stimulation (maximal extent of activation)", "setting": "[7]; partially purified rat AMPK", "value": 1.5, "unit": "fold"},
      {"measurement": "EC50", "setting": "[7]; rat AMPK, read-out: half-maximal stimulatory concentration", "value": 1.9, "unit": "µM"},
      {"measurement": "fold stimulation (maximal extent of activation)", "setting": "[8]", "value": 2.25, "unit": "fold"}
    ]}
  ]
}
